Converted amounts (≈) assume the structure as drawn. Square brackets hold non-standard residues; d marks the D form. Peptide text beside a SMILES is read from it. N(1-naphthylmethyl)Gly = O=C(O)CNCc1cccc2ccccc12; Nphe = O=C(O)CNCc1ccccc1; NBuGly = CCCCNCC(=O)O
Key:
[1] = in vitro; format: cell-based, bovine; settings: bovine
Protocol: (§1) The haemolytic activity of the 24 structurally related peptides (Table 1) was evaluated in erythrocytes from four different species (human, canine, bovine and rat) employing standard methodology. The subsequent release of haemoglobin was used to assess haemolytic activity as function of peptide and peptidomimetic concentration, with concentrations ranging from 0.15 to 150 µM (Presented in whole in Supplementary information Table S1–S4).
(§2) Human and rat (Sprague–Dawley) blood samples were purchased by Bioreclamation IVT (Westbury, NY, USA), collected in tubes containing heparin as anticoagulant and stored at 4 °C before use. Dog and bovine whole blood was collected from in-house animals at Zoetis Animal Health, Kalamazoo, Michigan and stored at 4 °C in tubes containing heparin as anticoagulant. 10 mL of each whole blood sample were centrifuged at 1,500 × g for 5 min and the resulting plasma fraction was removed from the samples. The pellets were washed with an equal volume (10 mL) of saline, mixing by inversion. The centrifuging and washing steps were repeated 5 times. After the last washing step, a volume of PBS was added, and the resulting samples were diluted 1:10 with PBS to yield an RBC concentration of ~ 5 × 10^8 RBC/mL. The assay was performed in a 384-well polypropylene microplate (Greiner 784201, Greiner Bio-One International, GMBH) through a Bravo Liquid Handling Platform 384 system (Agilent Technologies, Santa Clara, CA, USA) according to the previously published procedures. The compounds were tested in serial 1:1 dilutions in PBS, with final concentrations ranging from 150 to 1.2 µM. Melittin was used as reference lytic peptide. 1% TritonX100 and PBS were used as positive and negative (diluent) controls, respectively. The final concentrations were obtained by adding to the wells 7 µL of each solution, melittin or PBS, followed by 63 µL of RBCs to each well. The plate was sealed, shaken on a plate shaker for 20 s, incubated for one hour at 37 °C. Finally, it was centrifuged at 1,500 × g for 5 min at room temperature. 60 µL of supernatants were removed from all plate wells via a Bravo 384 robot and transferred to a flat-bottomed 384-well plate (Greiner UV-Star #7810801, Greiner Bio-One International, GMBH). The plate was centrifuged at 1,000 g for 1 min to remove air bubbles and optical density was measured at 405 nm using a plate reader. Percentage of haemolysis was calculated with the following equation: %haemolysis=(absorbance of test sample)-absorbance of diluent/absorbance of positive control-absorbance of diluent×100.

[2] = tested on: rat erythrocytes; test: in vitro; format: cell-based, rat (Sprague–Dawley); settings: for IC10 haemolysis: rat erythrocytes; for IC50: red cells of rat
Protocol: as §1, §2

[3] = in vitro; format: cell-based, rat (Sprague–Dawley); settings: Sprague-Dawley, rat
Protocol: as §1, §2

[4] = tested on: Staphylococcus pseudintermedius; settings: cited from earlier work; for S.p. MIC: Staphylococcus pseudintermedius, Table S5, in µM
[5] = in vitro; format: cell-based, dog; settings: dog
Protocol: as §1, §2

[6] = tested on: canine erythrocytes; test: in vitro; format: cell-based, dog; settings: for IC10 haemolysis: canine erythrocytes; for IC50: red cells of canine
Protocol: as §1, §2

[7] = in vitro; format: cell-based, human; settings: human
Protocol: as §1, §2

[8] = tested on: human erythrocytes; test: in vitro; format: cell-based; settings: for IC10 haemolysis: human erythrocytes; for IC50: red cells of human
Protocol: as §1, §2

[9] = tested on: Pseudomonas aeruginosa; set-up: method as in PMID 30842436; settings: cited from earlier work
[10] = tested on: HaCaT cells; format: cell-based, human; settings: 1 h
Protocol: (§3) An immortalised human keratinocyte (HaCaT) cell line (Gift from David Gram Naym at Bispebjerg Hospital, Denmark), a human liver cancer cell line (HepG2; ATCC HB-8065) and a human epithelial cervical cancer cell line (HeLa; ATCC CCL-2) were cultured to ∼90% confluence after 21–25 h of growth under standard conditions (5% CO2 at 37 °C). Cells were cultured in Dulbecco’s Modified Eagle’s Medium supplemented with 10% (v/v) fetal bovine serum (FBS). All culture media were supplemented with penicillin (100 IU/mL) and streptomycin (100 μg/mL). All cell media and supplements were obtained from Sigma-Aldrich (St. Louis, MO, United States). The 96-well plates were supplied by Corning Costar (Sigma-Aldrich, Brøndby, Denmark). Cell viability assessment was performed on cell monolayers grown to ∼90% confluence in 96-well plates by using the MTS/PMS assay as previously described. Briefly, the adhered cells were washed with PBS solution (37 °C) (ThermoFisher Scientific, Roskilde) and exposed for 1 h at 37 °C to 100 μL of peptides dissolved in the medium also used for culturing of the cell line (at concentrations in the range 0–1,000 μg/mL). The cells were subsequently washed twice with 37 °C PBS and then 100 μL of an MTS/PMS solution in media, consisting of 240 μg/mL MTS (Promega, Madison, WI, United States) and 2.4 mg/mL PMS (Promega, Madison, WI, United States), was added to the cells, which then were incubated for 1 h at 37 °C protected from light. A plate reader (SpectraMax i3X; Molecular devices, San Jose, CA) was used to measure the absorbance at 492 nm. The relative viability was calculated by using 0.2% (w/v) sodium dodecyl sulfate (SDS) as the positive control, while cells exposed to medium without test compound were used as the negative control.

[11] = tested on: HeLa cells; format: cell-based, human; settings: 1 h
Protocol: as §3

[12] = tested on: Staphylococcus aureus; set-up: method as in PMID 30842436; settings: cited from earlier work
[13] = tested on: human erythrocytes; settings: cited from earlier work
[14] = tested on: bovine erythrocytes; test: in vitro; format: cell-based; settings: bovine erythrocytes
Protocol: as §1, §2

Structure (SMILES)	IC50 [2] [µM]	IC50 [6] [µM]	IC50 [8] [µM]	IC50 [11] [µM]	hemolysis at 1 h, 150 µM [1] [%]	IC10 haemolysis [2] [µM]	hemolysis at 1 h, 150 µM [3] [%]	S.p. MIC [4] [µM]	MIC against Staphylococcus pseudintermedius [4] [µg/mL]	hemolysis at 1 h, 150 µM [5] [%]	IC10 haemolysis [6] [µM]	hemolysis at 1 h, 150 µM [7] [%]	IC10 haemolysis [8] [µM]	MIC against Pseudomonas aeruginosa [9] [µg/mL]	IC50 [10] [µM]	MIC against Staphylococcus aureus [12] [µg/mL]	Haemolysis at 80 µM (in words) [2]	Haemolysis at 80 µM (in words) [6]	Haemolysis at 80 µM (in words) [8]	IC10 haemolysis [14] [µM]	other results
CC(C)C[C@H](NC(=O)[C@H](Cc1cccc2ccccc12)NC(=O)[C@H](Cc1ccccc1)NC(=O)[C@@H](N)Cc1cccc2ccccc12)C(=O)N[C@@H](CCCCN)C(=O)N[C@@H](CCCCN)C(=O)N[C@@H](CCCCN)C(N)=O [Compound 5, (1-Nal)Ala-Phe-(1-Nal)Ala-Leu-Lys-Lys-Lys] (HELM PEPTIDE1{[N[C@@H](Cc1cccc2ccccc12)C(=O)[*:2]].F.[O=C([C@H](Cc1cccc2ccccc12)N[*:1])[*:2]].L.K.K.K.[am]}$$$$V2.0)	> 150	> 150	> 150	1030	< 8	147.7	10.2	15.1	16 (≈ 15.1 µM)	22.5	29.6	36	35.3	> 64	524	32 (≈ 30.3 µM)					
CCCCN(CC(=O)N(CC(=O)N(CC(=O)N(CC(N)=O)Cc1cccc2ccccc12)Cc1ccccc1)Cc1cccc2ccccc12)C(=O)[C@H](CCCCN)NC(=O)[C@H](CCCCN)NC(=O)[C@@H](N)CCCCN [Compound 15, Lys-Lys-Lys-(N-Bu)Gly-(N1-Nal)Gly-(N-Phe)Gly-(N1-Nal)Gly] (H-KKK[NBuGly][N(1-naphthylmethyl)Gly][Nphe][N(1-naphthylmethyl)Gly]-NH2)	47.6	65.7	41.7	394	< 8	35.61	99.5	3.8	4 (≈ 3.79 µM)	87.1	11.6	94.2	8.4	32 (≈ 30.3 µM)	297	16 (≈ 15.1 µM)	near total haemolysis	near total haemolysis	near total haemolysis		
CC(C)C[C@@H](NC(=O)[C@H](CCCCN)NC(=O)[C@H](CCCCN)NC(=O)[C@@H](N)CCCCN)C(=O)N[C@H](Cc1ccc2ccccc2c1)C(=O)N[C@H](Cc1ccc(O)cc1)C(=O)N[C@H](Cc1ccc2ccccc2c1)C(N)=O [Compound 24, Lys-Lys-Lys-Leu-(2-Nal)Ala-Tyr-(2-Nal)Ala] (HELM PEPTIDE1{K.K.K.[dL].[O=C([C@@H](Cc1ccc2ccccc2c1)N[*:1])[*:2]].[dY].[O=C([C@@H](Cc1ccc2ccccc2c1)N[*:1])[*:2]].[am]}$$$$V2.0)	> 150	> 150	> 150		29.8	> 150	< 8		4 to 8	38.5	45.0	23.4	76.72	32 (≈ 29.8 µM)		16 to 32				89.6	

Now from value to molecule, other results behind:

IC50 [2] [µM]	IC50 [6] [µM]	IC50 [8] [µM]	IC50 [11] [µM]	Structure (SMILES)	hemolysis at 1 h, 150 µM [1] [%]	IC10 haemolysis [2] [µM]	hemolysis at 1 h, 150 µM [3] [%]	S.p. MIC [4] [µM]	MIC against Staphylococcus pseudintermedius [4] [µg/mL]	hemolysis at 1 h, 150 µM [5] [%]	IC10 haemolysis [6] [µM]	hemolysis at 1 h, 150 µM [7] [%]	IC10 haemolysis [8] [µM]	MIC against Pseudomonas aeruginosa [9] [µg/mL]	IC50 [10] [µM]	MIC against Staphylococcus aureus [12] [µg/mL]	Haemolysis at 80 µM (in words) [2]	Haemolysis at 80 µM (in words) [6]	Haemolysis at 80 µM (in words) [8]	IC10 haemolysis [14] [µM]	other results
87.8	42.7	95.6		CCCC[C@H](NC(=O)[C@H](CCCCN)NC(=O)[C@H](CCCCN)NC(=O)[C@@H](N)CCCCN)C(=O)N[C@@H](Cc1ccc2ccccc2c1)C(=O)N[C@@H](Cc1ccccc1)C(=O)N[C@@H](Cc1ccc2ccccc2c1)C(N)=O [Compound 18, Lys-Lys-Lys-Nle-(2-Nal)Ala-Phe-(2-Nal)Ala] (HELM PEPTIDE1{K.K.K.[Nle].[O=C([C@H](Cc1ccc2ccccc2c1)N[*:1])[*:2]].F.[O=C([C@H](Cc1ccc2ccccc2c1)N[*:1])[*:2]].[am]}$$$$V2.0)	< 8	64.4	98.6		2 to 4	101	21.4	58.8	18.7	8 (≈ 7.57 µM)		32 to 64	near total haemolysis	near total haemolysis	near total haemolysis		Previously reported haemolytic activity against human erythrocytes (in words) [13]: high in vitro haemolytic activity
> 150	> 150	> 150	462	CC(C)C[C@H](NC(=O)[C@H](CCCCN)NC(=O)[C@@H](N)CCCCN)C(=O)N[C@@H](CCCCN)C(=O)N[C@@H](Cc1ccc2ccccc2c1)C(=O)N[C@@H](Cc1ccccc1)C(=O)N[C@@H](Cc1ccc2ccccc2c1)C(N)=O [Compound 1, Lys-Lys-Leu-Lys-(2-Nal)Ala-Phe-(2-Nal-)Ala] (HELM PEPTIDE1{K.K.L.K.[O=C([C@H](Cc1ccc2ccccc2c1)N[*:1])[*:2]].F.[O=C([C@H](Cc1ccc2ccccc2c1)N[*:1])[*:2]].[am]}$$$$V2.0)	32.5	> 150	< 8	7.6	8 (≈ 7.57 µM)	19.7	34.2	< 8	> 150	32 (≈ 30.3 µM)	654	16 (≈ 15.1 µM)				45.1	

— publication PMC7414031, “Correlation between hemolytic activity, cytotoxicity and systemic in vivo toxicity of synthetic antimicrobial peptides” (Scientific Reports, 2020)
